From patent US20080089860A1, “Therapeutic compositions and methods useful in treating cancer” (priority 2006, published 2008)

What was measured:
PRL-2 = target: T1, PRL-2 (Homo sapiens, UniProt Q12974); assay: In vitro PTPase assay, recombinant PRL-2; format: biochemical
T1 construct: made in house; host or cells: E. coli DH5a
From the text: (§1) Sodium stibogluconate, suramin, sodium orthovanadate and GST fusion protein of SHP-1 have been described previously (Pathak et al., J. Imumol. 167, 3391 (2001)). Meglumine antimonate was obtained from Aventis. cDNAs of human PRL-1, PRL-2 and PRL-3 coding region were derived by RT-PCR from H9 cells (Safai, et al., Lancet 1, 1438 (1984)) and inserted in frame into the pGEX vector. cDNA of PRL-1R86 was generated by recombinant DNA technique using PRL-1 cDNA as template following established procedures (Jiao, et al., Mol. Cell. Biol. 16, 6985 (1996)). […]
(§2) In vitro PTPase assays were used to determine the effects of compounds on recombinant PTPases, following established procedures using a synthetic phosphotyrosine peptide or DiFMUP as the substrate (Pathak et al., J. Imumol. 167, 3391 (2001)). […] PTPase activity of individual reactions was measured by adding 100 µL of malachite green solution (UBI) and then quantifying the amounts of free phosphate cleaved by the PTPase from the peptide substrate by spectrometry (OD660 nm). […] Relative PTPase activities were calculated based on the formula: (PTPase activity in the presence of an inhibitory compound/PTPase activity in the absence of the compound)× 100%. […]

GSTm8 = assay: In vitro PTPase assay, GSTm8; format: biochemical; details: 3-4 μg/ml or 10-100 μg/ml
From the text: In vitro PTPase assays were used to determine the effects of levamisole (Sigma), pentamidine (American Pharmaceutical Partners, Inc.), and ketoconazole (Sigma) on recombinant PTPases, following established procedures (Pathak et al., J. Imumol. 167, 3391 (2001); Pathak et al., Leukemia 16, 2285 (2002), Yi et al., J. Immunol. 169, 5978 (2002)) using a synthetic phosphotyrosine peptide or DiFMUP as the substrate as detailed above in section I.A.2.

PRL-1 = target: T2, PRL-1 (Homo sapiens, UniProt Q93096); assay: In vitro PTPase assay, recombinant PRL-1; format: biochemical; details: 0.1-100 μg/ml
T2 construct: made in house; host or cells: E. coli DH5a
From the text: as §1, §2

PRL-3 = target: T3, PRL-3 (Homo sapiens, UniProt O75365); assay: In vitro PTPase assay, recombinant PRL-3; format: biochemical; details: for PRL-3 PTPase activity remaining: 0.1-100 μg/ml
T3 construct: made in house; host or cells: E. coli DH5a
From the text: Sodium stibogluconate, suramin, sodium orthovanadate and GST fusion protein of SHP-1 have been described previously (Pathak et al., J. Imumol. 167, 3391 (2001)). Meglumine antimonate was obtained from Aventis. cDNAs of human PRL-1, PRL-2 and PRL-3 coding region were derived by RT-PCR from H9 cells (Safai, et al., Lancet 1, 1438 (1984)) and inserted in frame into the pGEX vector. cDNA of PRL-1R86 was generated by recombinant DNA technique using PRL-1 cDNA as template following established procedures (Jiao, et al., Mol. Cell. Biol. 16, 6985 (1996)). GST fusion proteins of the PRL phosphatases were prepared from DH5a bacteria transformed with the pGEX fusion protein constructs as described previously (Yi, et al., Mol. Cell. Biol. 12, 836 (1992)). cDNAs encoding the PRLs tagged at the N-termini with the Flag epitope (Castrucci, et al., J. Virol. 66, 4647 (1992)) were generated via recombinant DNA technique, sequenced to confirm their identities and cloned into the pBabepuro vector (Yang, et al., Blood 91, 3746 (1998)). Anti-Flag monoclonal antibody (M2, Sigma) was purchased from a commercial source. A synthetic phosphotyrosine peptide (Arg-Arg-Leu-Ile-Glu-Asp-Ala-Gle-Tyr-Al- -a-Ala-Arg-Gly (SEQ ID NO: 3), wherein the tyrosine is phosphorylated; UBI) and DiFMUP (6,8-difluoro-4-methylumbelliferyl phosphate, Molecular Probes) were purchased as substrates for PTPase assays.
In vitro PTPase assays were used to determine the effects of compounds on recombinant PTPases, following established procedures using a synthetic phosphotyrosine peptide or DiFMUP as the substrate (Pathak et al., J. Imumol. 167, 3391 (2001)). Briefly, individual PTPases (0.1 µg/reaction) in 50 µL of PTPase buffer (50 mM Tris, pH 7.4) were incubated at 22° C. for 10 minutes or as indicated in the absence or presence of inhibitory compounds. Substrates (0.2 mM phosphotyrosine peptide) were then added and allowed to react at 22° C. for 18 hrs. PTPase activity of individual reactions was measured by adding 100 µL of malachite green solution (UBI) and then quantifying the amounts of free phosphate cleaved by the PTPase from the peptide substrate by spectrometry (OD660 nm). PTPase assays using DiFMUP as a substrate were conducted following a previously described procedure (Matter, et al., Biochem. Biophys. Res. Comm. 283, 1061 (2001)). Relative PTPase activities were calculated based on the formula: (PTPase activity in the presence of an inhibitory compound/PTPase activity in the absence of the compound)× 100%. To assess the reversibility of PTPase inhibition, GST fusion proteins of the PTPases bound on glutathione beads (Pharmacia) were pre-incubated with cold Tris buffer (50 mM Tris, pH 7.0) or Tris buffer containing the inhibitor at 4° C. for 30 minutes. The beads were then washed three times in cold Tris buffer or not washed prior to subjecting to in vitro PTPase assays.

U266 cells = assay: U266 multiple myeloma cell growth, MTT assay; format: cell-based, human; details: day 6
Protocol: For cell proliferation assays, cells were grown in 10% FCS culture medium containing various amounts of IFNs and/or sodium stibogluconate in 96 well plates and cultured at 37° C. for 3 or 6 days as indicated. The numbers of viable cells in proliferation assays were determined by MTT assays as described in Phatak et al., J. Immunol. 167, 3391 (2001).

NB4 cells = assay: NB4 differentiation (NBT reduction, CD11b); format: cell-based, human; details: 6 days with drug (10 or 100 μg/ml), washed, 6 days without
Protocol: Differentiation of AML cell lines was assessed by their ability to produce superoxide as measured by reduction of NBT to formazan and by analysis of expression of CD11b surface marker by flow cytometry. For NBT reduction, each cell suspension was mixed with an equal volume of solution containing 1 mg/ml of NBT (Sigma) and 2.5 µg/ml of TPA for 30 minutes at 37° C. After incubation, cells containing the purple formazan deposits and cells devoid of NBT-reducing activity (white cells) in each sample were determined by counting 200 cells under microscope. Data is expressed as a percentage based on the following ratio: purple cells/purple+white cells. For analysis of cell surface antigens, cells were exposed to phycoerythrin (PE)-conjugated murine anti-human CD11b (DAKO Corp., Carpinteria, Calif.). Analysis of fluorescence was performed on a FACScan flow cytometer (Beckton Dickinson, Mountain View, Calif.).

[1] = cited from earlier work
[2] = Toxicity in nude mice (viability, body weight); format: in vivo
Protocol: In light of the relatively rapid rate of clearance of the drug in vivo, 440 mg Sb/kg dosage was used to ensure the detection of the effectiveness of the drug for this initial study.
As discussed above, the dosage of sodium stibogluconate used for the treatment of nude mice was 12 mg Sb/mouse, s.c., daily (or approximately 440 mg/kg body weight). […] As an initial step to assess the toxicity of such a high dosage of sodium stibogluconate in nude mice, the effect of sodium stibogluconate on the viability and body weights of WM9 xenografts nude mice during the 25 day period of the study was determined.

Renca tumors = Renca tumors in Balb/c mice; format: in vivo; details: end of treatment
Protocol: Balb/c and athymic nude Balb/c mice (10 weeks old, female, Taconic Farms, Germantown, N.Y.) were inoculated (s.c.) at the flanks with Renca cells (10^6 cells/site). […] Student's t test was used for assessing the significance of tumor volume differences among differential treatment groups. Mouse viability (daily) and body weights (weekly) were also recorded during the study period. At the end of the study, Renca tumors and major internal organs (heart, kidney, liver, lung and spleen) were harvested for histology and immunohistochemistry analysis.

T3 sequence (O75365 whole entry): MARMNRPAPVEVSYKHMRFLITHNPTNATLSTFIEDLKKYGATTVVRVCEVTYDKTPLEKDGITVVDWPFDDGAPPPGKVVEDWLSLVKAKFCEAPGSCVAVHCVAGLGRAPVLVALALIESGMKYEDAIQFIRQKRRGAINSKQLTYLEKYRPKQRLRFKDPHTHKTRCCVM
T1 sequence (Q12974 whole entry): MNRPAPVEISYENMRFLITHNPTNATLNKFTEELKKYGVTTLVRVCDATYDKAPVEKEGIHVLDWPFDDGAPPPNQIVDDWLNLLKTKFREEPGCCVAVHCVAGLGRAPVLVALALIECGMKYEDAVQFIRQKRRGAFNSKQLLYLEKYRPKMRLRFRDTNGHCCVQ
T2 sequence (Q93096 whole entry): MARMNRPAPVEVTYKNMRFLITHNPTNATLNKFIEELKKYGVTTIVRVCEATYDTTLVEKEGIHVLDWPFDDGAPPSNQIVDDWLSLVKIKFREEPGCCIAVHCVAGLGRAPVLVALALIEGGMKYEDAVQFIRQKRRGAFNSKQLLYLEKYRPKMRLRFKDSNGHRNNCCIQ

Structure (SMILES) | effectiveness against PRL-2 (PRL-2) | inhibitory activity against GSTm8 (GSTm8) | PRL-1 activity retained (PRL-1) | PRL-3 PTPase activity remaining (PRL-3) | growth inhibition of U266 cells by the drug by itself (U266 cells) | reversal of NB4 differentiation after drug removal (NB4 cells) | clinical tolerability at therapeutic dosages ([1]; human, in vivo) | serum levels ([1]; standard dosage 10-20 mg/kg/day) [ng/mL] | tolerability ([2]; 12 mg Sb daily (440 mg Sb/kg daily)) | tolerated daily dose in mice, pilot study ([2]; approximately 700-800 mg Sb/kg) [mg Sb] | survival of WM9-inoculated nude mice ([2]; day 25) | inhibition of PRL-3 after washing (PRL-3) | inactivation of PRL-3 (PRL-3; 10 μg/ml, pre-incubation 30 or 60 minutes) | tolerability of treatment (Renca tumors)
CC(=O)N1CCN(c2ccc(OCC3COC(Cn4ccnc4)(c4ccc(Cl)cc4Cl)O3)cc2)CC1 (stereo not drawn) [ketoconazole] | not effective | no obvious inhibitory activity | 60-70% | 25-40% |  |  |  |  |  |  |  |  |  | 
N=C(N)c1ccc(OCCCCCOc2ccc(C(=N)N)cc2)cc1 [pentamidine] | not effective | no obvious inhibitory activity | 70-80% | 20-30% |  |  |  |  |  |  |  |  |  | 
O.O.O.O.O.O.O.O.O.O=C([O-])[C@@H]1[O][Sb]2([O-])([O][Sb]34([OH])[O][C@H]([C@H](O)CO)[C@H]([O]3)[C@H](C(=O)[O-])[O]4)[O][C@H]([C@H](O)CO)[C@@H]1[O]2.[Na+].[Na+].[Na+] [sodium stibogluconate] |  |  |  |  | substantial growth inhibition activity | not reversed | well tolerated | ≥ 10000 | well tolerated with no serious side effects | 20 | survived until the end of the study | not relieved by a washing process | nearly complete inactivation | tolerated well
